Where a name gives a salt, the structure may show the parent alone.
Experiments:
rat hepatocytes = assay: Rat hepatocyte metabolism (compound remaining, mass spectroscopy); type: in vitro ADME
Experimental: (§1) 2. Rat Hepatocyte Metabolism
(§2) The quantity of compound remaining after a fixed period of time was then determined using mass spectroscopy.

human PDE IVA = molecular target: T1, human PDE IVA (Homo sapiens, UniProt P27815); assay: Isolated recombinant human PDE IVA enzyme, inhibition of phosphodiesterase activity ([3H]-cAMP); type: biochemical; details: 0.1 μM [3H]-cAMP, pH 7.5, 30° C.
T1 construct: made in house; host or cells: yeast (inducible vector)
T1 sequence (P27815 whole entry): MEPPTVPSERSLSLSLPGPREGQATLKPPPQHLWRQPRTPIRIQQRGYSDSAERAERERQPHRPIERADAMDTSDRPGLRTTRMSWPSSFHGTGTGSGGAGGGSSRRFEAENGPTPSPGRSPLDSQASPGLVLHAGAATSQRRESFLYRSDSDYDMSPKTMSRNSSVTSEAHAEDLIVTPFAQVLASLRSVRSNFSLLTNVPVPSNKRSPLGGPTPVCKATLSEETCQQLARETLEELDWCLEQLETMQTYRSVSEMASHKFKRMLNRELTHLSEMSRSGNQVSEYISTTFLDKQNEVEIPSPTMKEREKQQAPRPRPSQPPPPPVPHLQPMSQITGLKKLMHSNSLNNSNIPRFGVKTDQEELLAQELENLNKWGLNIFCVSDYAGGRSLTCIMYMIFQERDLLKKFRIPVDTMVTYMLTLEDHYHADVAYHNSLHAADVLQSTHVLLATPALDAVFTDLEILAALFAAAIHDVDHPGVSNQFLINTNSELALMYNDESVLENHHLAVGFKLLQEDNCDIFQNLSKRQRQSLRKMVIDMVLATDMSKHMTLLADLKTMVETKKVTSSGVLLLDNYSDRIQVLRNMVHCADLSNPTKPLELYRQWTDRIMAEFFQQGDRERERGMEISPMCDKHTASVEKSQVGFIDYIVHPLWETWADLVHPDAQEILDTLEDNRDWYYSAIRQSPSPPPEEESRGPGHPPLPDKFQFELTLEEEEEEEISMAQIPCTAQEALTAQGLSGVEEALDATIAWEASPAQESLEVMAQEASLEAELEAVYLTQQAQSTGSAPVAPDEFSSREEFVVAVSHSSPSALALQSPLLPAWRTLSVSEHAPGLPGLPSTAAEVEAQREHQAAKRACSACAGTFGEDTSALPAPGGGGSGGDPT
Excerpt: 1. Isolated Recombinant Human PDE IVA Enzyme
A gene encoding human PDE IV has been cloned from human monocytes (Livi, et al., 1990, Molecular and Cellular Biology, 10, 2678). Using similar procedures we have cloned human PDE IV genes from a number of sources including eosinophils, neutrophils, lymphocytes, monocytes, brain and neuronal tissues. These genes have been transfected into yeast using an inducible vector and various recombinant proteins have been expressed which have the biochemical characteristics of PDE IV (Beavo and Reifsnyder, 1990, TIPS, 11, 150). These recombinant enzymes, particularly the human eosinophil recombinant PDE IVA, have been used as the basis of a screen for potent, selective PDE IV inhibitors.
The enzymes were purified to isoenzyme homogeneity using standard chromatographic techniques.
Phosphodiesterase activity was assayed as follows. The reaction was conducted in 150 μl of standard mixture containing (final concentrations): 50 mM 2-[[tris(hydroxymethyl)methyl]amino]-1-ethanesulphonic acid (TES) --NaOH buffer (pH 7.5), 10 mM MgCl2, 0.1 μM [^3 H]-cAMP and vehicle or various concentrations of the test compounds. […] Recovery of [^3 H]-5'AMP was determined using the [^14 C]-5'AMP and all assays were conducted in the linear range of the reaction. Results were expressed as IC50 values.

[1] = Rat hepatocyte metabolism (compound remaining, mass spectroscopy); type: in vitro ADME; details: rat hepatocytes, read-out: compound remaining at the end of the period
Experimental: as §1, §2

Row | metabolism after 3 h (in words) (rat hepatocytes) | compound remaining at the end of the period (rat hepatocytes; 3 h) [%] | IC50 (human PDE IVA) [nM] | remaining at 3 h [1] [%] | Molecule
1 | substantially unmetabolised | ≥ 80 | 34 |  | (R)-N-[4-{1-(3-(2-Indanyloxy)-4-methoxyphenyl)-2-(4-pyridyl)ethyl}phenyl]-N'-ethylurea hydrochloride [Example 3]
2 | substantially unmetabolised |  | 2 | ≥ 80 | COc1ccc([C@H](Cc2ccncc2)c2cccc(NS(=O)(=O)c3ccccc3)c2)cc1OC1Cc2ccccc2C1 [Example 2, hydrochloride]

From patent publication US5891896A, “Tri-substituted phenyl derivatives useful as PDE IV inhibitors” (Celltech Therapeutics Ltd., priority 1995, dated 1999)
